Laboratory results from patent publication US20240358842A1, “PROTEIN STABILIZING COMPOUNDS CONTAINING USP7 LIGANDS” (Stablix, Inc., priority 2021, published 2024).
pIC50, pKd: −log10 of the molar value. Read-outs that look alike come from different tables or passages of the source.

Assays:
USP7 CD + UBL 1-5 = target: T1, USP7 CD + UBL 1-5 (Homo sapiens, UniProt Q93009); experiment: Surface plasmon resonance assay (SPR); assay type: binding
T1 construct: USP7 CD +
Protocol: The surface plasmon resonance experiments were performed using a Cytiva (formerly GE Healthcare) Biacore 8K equipped with a Series S Sensor Chip SA. The ligands were immobilized via a biotin-modified biotin acceptor peptide. USP7 Ligands were diluted in running buffer (HBS-P+2% DMSO; 10 mM HEPES, pH 7.4, 150 mM NaCl, 1 mM DTT, 0.05% P20, 2% DMSO) to 100 μg/mL and injected at […] until a density between 500-10,000 RU was reached on flow-cell two of each channel, and flow cell one was left blank to serve as a reference surface. Both surfaces were washed until a stable baseline was achieved then 30 startup cycles to condition the surface. To collect kinetic and steady-state binding data, the small molecule analytes were prepared in three-fold dilution series in HBS-P+2% DMSO running buffer. Analytes were injected over both flow cells at a flow rate of […] at 25° C. The complex was allowed to associate for 60 seconds and dissociate for 300 seconds. Data were collected at 10 Hz. The data were fit to a simple 1:1 interaction model global data analysis within Cytiva Biacore Insight Evaluation Software.

USP7 = USP7 (Homo sapiens, UniProt Q93009); experiment: Ub-Rho cleavage assay; assay type: biochemical
Protocol: All fluorescence measurements were performed on a Molecular Devices FlexStation3 with excitation at 480 nm and emission 540 nm, PMT Gain: Medium, Flash Number: 10. […] Assay buffer for all measurements was 50 mM HEPES, 100 mM NaCl, 0.5 mM EDTA, 1 mM TCEP, 0.1 mg/ml BSA, 0.01% Tween-20, pH 7.8. […] Serial dilutions were made with a Mosquito HTS (SPT Labtech) nanoliter liquid handler. 200 nL of each compound in duplicate or DMSO control were transferred to the assay plate. The first two columns served as positive controls. 9.8 μl per well of USP7 working solution was added to the assay plate. Compound+Protein was incubated for 25 min at 25° C. 10 uL of Ub-Rho substrate was added per well and incubated for an additional 15 min at 25° C. Fluorescence was then measured. Percent response relative to DMSO controls was calculated in GraphPad or Scinamic, and the data was fitted to a non-linear regression to determine IC50 values.

[1] = kinetic KD, read-out: SPR USP7 CD + UBL 1-5 (KD_kinetic)
[2] = steady-state KD, read-out: SPR USP7 CD + UBL 1-5 (KD_ss)
[3] = Ub-Rho substrate, recombinant USP7, read-out: Ub (Rho) USP7.1 (IC50)

T1 sequence (Q93009 208-1102 limits assumed): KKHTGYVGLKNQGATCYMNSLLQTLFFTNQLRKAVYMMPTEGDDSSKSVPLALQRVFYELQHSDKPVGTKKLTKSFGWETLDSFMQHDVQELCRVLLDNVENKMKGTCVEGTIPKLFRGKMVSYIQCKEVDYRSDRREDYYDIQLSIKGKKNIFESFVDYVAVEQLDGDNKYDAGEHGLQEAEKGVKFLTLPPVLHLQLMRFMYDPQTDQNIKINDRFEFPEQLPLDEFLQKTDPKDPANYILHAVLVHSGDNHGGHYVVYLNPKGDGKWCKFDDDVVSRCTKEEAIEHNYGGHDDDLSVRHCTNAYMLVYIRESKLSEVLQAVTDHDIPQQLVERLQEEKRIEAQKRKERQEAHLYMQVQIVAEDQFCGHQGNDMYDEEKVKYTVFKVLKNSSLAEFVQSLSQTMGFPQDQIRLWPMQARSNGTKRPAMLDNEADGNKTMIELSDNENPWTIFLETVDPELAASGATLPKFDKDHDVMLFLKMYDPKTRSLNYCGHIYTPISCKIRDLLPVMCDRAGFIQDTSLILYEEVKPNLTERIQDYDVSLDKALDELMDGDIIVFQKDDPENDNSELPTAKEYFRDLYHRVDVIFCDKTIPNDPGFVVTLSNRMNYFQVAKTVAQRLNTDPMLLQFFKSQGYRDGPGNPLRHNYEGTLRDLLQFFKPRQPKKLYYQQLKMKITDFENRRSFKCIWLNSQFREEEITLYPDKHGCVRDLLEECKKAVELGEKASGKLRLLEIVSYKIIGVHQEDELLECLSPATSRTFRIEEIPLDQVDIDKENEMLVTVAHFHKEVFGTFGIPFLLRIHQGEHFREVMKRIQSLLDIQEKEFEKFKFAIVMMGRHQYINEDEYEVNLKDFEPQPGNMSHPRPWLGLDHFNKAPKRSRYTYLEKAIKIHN
Sequence of USP7 (Q93009 whole entry): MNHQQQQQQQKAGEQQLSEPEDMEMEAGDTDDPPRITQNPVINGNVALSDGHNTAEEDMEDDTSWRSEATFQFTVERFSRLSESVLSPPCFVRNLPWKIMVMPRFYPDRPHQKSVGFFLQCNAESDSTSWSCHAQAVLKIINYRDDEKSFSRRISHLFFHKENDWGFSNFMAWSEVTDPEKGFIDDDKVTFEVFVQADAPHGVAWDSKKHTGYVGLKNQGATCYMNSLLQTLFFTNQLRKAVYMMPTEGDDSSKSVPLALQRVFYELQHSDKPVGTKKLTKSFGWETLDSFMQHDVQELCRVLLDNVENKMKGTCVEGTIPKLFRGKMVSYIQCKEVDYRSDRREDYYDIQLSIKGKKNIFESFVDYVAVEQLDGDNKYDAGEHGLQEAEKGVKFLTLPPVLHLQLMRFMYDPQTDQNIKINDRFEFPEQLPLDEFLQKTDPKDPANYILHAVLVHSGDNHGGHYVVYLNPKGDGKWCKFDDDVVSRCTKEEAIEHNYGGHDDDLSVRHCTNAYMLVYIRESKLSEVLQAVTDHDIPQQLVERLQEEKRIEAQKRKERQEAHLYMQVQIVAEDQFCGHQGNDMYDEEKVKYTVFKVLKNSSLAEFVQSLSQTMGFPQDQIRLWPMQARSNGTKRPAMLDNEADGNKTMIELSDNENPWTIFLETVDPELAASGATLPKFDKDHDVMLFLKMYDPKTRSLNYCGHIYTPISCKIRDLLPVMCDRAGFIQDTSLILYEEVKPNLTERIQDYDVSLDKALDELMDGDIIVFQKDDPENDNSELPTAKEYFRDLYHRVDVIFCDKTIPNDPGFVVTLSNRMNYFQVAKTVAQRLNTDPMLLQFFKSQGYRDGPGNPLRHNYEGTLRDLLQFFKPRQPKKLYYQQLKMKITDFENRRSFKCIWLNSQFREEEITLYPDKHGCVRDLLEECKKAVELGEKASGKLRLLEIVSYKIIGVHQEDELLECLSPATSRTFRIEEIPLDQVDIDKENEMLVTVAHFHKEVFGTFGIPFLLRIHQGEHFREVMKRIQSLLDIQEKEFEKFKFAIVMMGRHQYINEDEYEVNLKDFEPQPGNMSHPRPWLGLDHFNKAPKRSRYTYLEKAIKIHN

SMILES	pKd (USP7 CD + UBL 1-5; [1])	pKd (USP7 CD + UBL 1-5; [2])	pIC50 (USP7; [3])	Kd (USP7 CD + UBL 1-5; SPR USP7 CD + UBL 1-5 (KD_ss) [nM], steady-state KD)	pIC50 (USP7)
C[C@H](CC(=O)N1CCC(O)(Cn2cnc3cc(N(C)CCN(C)CCCNC(=O)OC(C)(C)C)ccc3c2=O)CC1)c1ccccc1 [U5]	> 6.00	> 6.00	> 6.00		
CCc1c(-c2ccc(C(=O)NCCCNC(=O)OC(C)(C)C)nc2)cnc(N)c1-c1ccc(O)cc1 [U7]	4.00 to 6.00	4.00 to 6.00	4.00 to 6.00		
CCc1c(-c2ccc3[nH]ncc3c2)cnc(N)c1-c1ccc(O)cc1 [U8]	4.00 to 6.00	4.00 to 6.00	4.00 to 6.00		
CCc1c(-c2ccc(C(=O)NCCOCCOCCOCCN=[N+]=[N-])nc2)cnc(N)c1-c1ccc(O)cc1 [U10]	4.00 to 6.00	4.00 to 6.00	4.00 to 6.00		
CCc1c(-c2ccc(C(=O)NC)cc2)cnc(N)c1-c1ccc(O)cc1 [U11]		4.00 to 6.00	4.00 to 6.00		
C[C@H](CC(=O)N1CCC(O)(Cn2cnc3c(-c4ccc(CNC(=O)OC(C)(C)C)cc4)n(C)nc3c2=O)CC1)c1ccccc1 [U14]	> 6.00	> 6.00	> 6.00		
C[C@H](CC(=O)N1CCC(O)(CN2C=NC3C(C#CCOCCNC(=O)OC(C)(C)C)=CSC3C2=O)CC1)c1ccccc1 (some centres unmarked) [U20]		4.00 to 6.00	4.00 to 6.00		
CCc1c(-c2ccc(OCCN)cc2)cnc(N)c1-c1ccc(O)cc1 [U21]		4.00 to 6.00	4.00 to 6.00		
C[C@H](CC(=O)N1CCC(O)(Cn2cnc3c(C#CCO)n(C)nc3c2=O)CC1)c1ccccc1 [U23]		> 6.00	> 6.00		
Nc1ncc(-c2ccc(O)cc2)cc1-c1ccc(O)cc1 [U24]		4.00 to 6.00	4.00 to 6.00		
O=C(C[C@@H](C(F)F)n1ccc(F)n1)N1CCC(O)(Cn2cnc3c(cnn3-c3ccc(F)cc3)c2=O)CC1 [U25]				< 1000 nM	> 6.00
C=CS(=O)(=O)Nc1ccccc1-c1ccc(C(=O)N2CCC(O)(Cn3cnc4c(cnn4C)c3=O)CC2)cc1 [U27]		4.00 to 6.00			
C[C@H](CC(=O)N1CCC(O)(Cn2cnc3cc(NCCN4CCN(CCCNC(=O)OC(C)(C)C)CC4)ccc3c2=O)CC1)c1ccccc1 [U35]		> 6.00	> 6.00		
C[C@H](CC(=O)N1CCC(O)(Cn2cnc(NCCN3CCN(CCN)CC3)cc2=O)CC1)c1ccccc1 [U37]		> 6.00	> 6.00		
Cn1nc2c(=O)n(CC3(O)CCN(C(=O)C[C@H](c4ccccc4)C(F)(F)F)CC3)cnc2c1Br [U38]		4.00 to 6.00	4.00 to 6.00		
CCc1c(-c2ccc(C(=O)NC)nc2)ccc(CNCCNC(=O)OC(C)(C)C)c1-c1ccc(O)cc1 [U43]		4.00 to 6.00	4.00 to 6.00		
CCc1c(-c2ccc(C(=O)NCCOCCOCCOCCNC(=O)OC(C)(C)C)nc2)ccc(N)c1C1=CC=C(O)CC1 [U44]		4.00 to 6.00	4.00 to 6.00		
CCc1c(-c2ccc(C(=O)NCCCNC(=O)CCCCNC(=O)OC(C)(C)C)nc2)cnc(N)c1-c1ccc(O)cc1 [U45]		4.00 to 6.00	4.00 to 6.00		
CCc1c(-c2ccc(C(=O)NC)nc2)cnc(CNC(=O)OC(C)(C)C)c1-c1ccc(O)cc1 [U47]		4.00 to 6.00	4.00 to 6.00		
CCc1c(-c2ccc(C(=O)NC)cc2)cnc(NC(=O)CN)c1-c1ccc(O)cc1 [U48]		4.00 to 6.00	< 4.00		
CCc1c(-c2ccc(C(=O)NCCCNC(=O)CCCCC(=O)OC(C)(C)C)nc2)cnc(N)c1-c1ccc(O)cc1 [U49]		4.00 to 6.00	4.00 to 6.00		
CCc1c(-c2ccc(C(=O)NCCCNC(=O)CCCCCNC(=O)OC(C)(C)C)nc2)cnc(N)c1-c1ccc(O)cc1 [U50]		4.00 to 6.00	4.00 to 6.00		

Results, then the compound that gave them:

pKd (USP7 CD + UBL 1-5; [1])	pKd (USP7 CD + UBL 1-5; [2])	pIC50 (USP7; [3])	Kd (USP7 CD + UBL 1-5; SPR USP7 CD + UBL 1-5 (KD_ss) [nM], steady-state KD)	pIC50 (USP7)	SMILES
> 6.00	> 6.00	> 6.00			C[C@H](CC(=O)N1CCC(O)(Cn2cnc3c(C#CCO)csc3c2=O)CC1)c1ccccc1 [U1]
4.00 to 6.00	4.00 to 6.00	4.00 to 6.00			C[C@H](CC(=O)N1CCC(O)(Cn2cnc3cc(Br)ccc3c2=O)CC1)c1ccccc1 [U3]
	4.00 to 6.00	4.00 to 6.00			C[C@H](CC(=O)N1CCC(O)(Cn2cnc3cc(Cl)ccc3c2=O)CC1)c1ccccc1 [U4]
> 6.00	> 6.00	> 6.00			C[C@H](CC(=O)N1CCC(O)(Cn2cnc3cc(NCCN(C)CCCNC(=O)OC(C)(C)C)ccc3c2=O)CC1)c1ccccc1 [U6]
> 6.00	> 6.00	> 6.00			Cc1cc(Cl)cc(-c2ccnc3cc(CN4C(=O)CCC4=O)sc23)c1OC1CCN(CCCNC(=O)OC(C)(C)C)CC1 [U9]
	4.00 to 6.00	4.00 to 6.00			Cc1cc(Cl)cc(-c2ccnc3cc(CN4C(=O)CCC4=O)sc23)c1OC1CCN(C(=O)CCNC(=O)OC(C)(C)C)CC1 [U13]
4.00 to 6.00	4.00 to 6.00	< 4.00			Cc1cc(Cl)cc(-c2ccnc3cc(CN4C(=O)CCC4=O)sc23)c1OC1CCN(C(=O)OC(C)(C)C)CC1 [U15]
> 6.00	> 6.00	> 6.00			Cc1cc(Cl)cc(-c2ccnc3cc(CN4C(=O)CCC4=O)sc23)c1OC1CCNCC1 [U16]
	> 6.00	> 6.00			Cc1cc(Cl)cc(-c2ccnc3cc(CN4C(=O)CCC4=O)sc23)c1OC1CCN(C(=O)CN=[N+]=[N-])CC1 [U19]
	> 6.00	> 6.00			Cc1cc(Cl)cc(-c2ccnc3cc(CN4C(=O)CCC4=O)sc23)c1CC1CCN(C(=O)CN)CC1 [U22]
	4.00 to 6.00				O=C(CCc1ccccc1)N1CCC(O)(Cn2cnc3cc(Cl)ccc3c2=O)CC1 [U26]
	> 6.00	4.00 to 6.00			C[C@H](CC(=O)C1CCC(O)(Cn2cnc3cc(C#CCN=[N+]=[N-])ccc3c2=O)CC1)c1ccccc1 (some centres unmarked) [U28]
	> 6.00	< 4.00			C[C@H](CC(=O)N1CCC(O)(Cn2cnc3cc(C#CCN)ccc3c2=O)CC1)c1ccccc1 [U29]
> 6.00	> 6.00	> 6.00			Cc1cc(Cl)cc(-c2ccnc3cc(CN4C(=O)CCC4=O)sc23)c1OC1CCN(CCCCCCCNC(=O)OC(C)(C)C)CC1 [U30]
	4.00 to 6.00	< 4.00			Cc1cc(Cl)cc(-c2ccnc3cc(CN4C(=O)CCC4=O)sc23)c1OC1CCN(C(=O)CCCCCCCCNC(=O)OC(C)(C)C)CC1 [U31]
	4.00 to 6.00	4.00 to 6.00			Cc1cc(Cl)cc(-c2ccnc3cc(CN4C(=O)CCC4=O)sc23)c1OC1CCN(C(=O)CCOCCNC(=O)OC(C)(C)C)CC1 [U32]
	4.00 to 6.00	4.00 to 6.00			Cc1cc(Cl)cc(-c2ccnc3cc(CN4C(=O)CCC4=O)sc23)c1OC1CCN(C(=O)CCOCCOCCNC(=O)OC(C)(C)C)CC1 [U33]
	4.00 to 6.00	4.00 to 6.00			Cc1cc(Cl)cc(-c2ccnc3cc(CN4C(=O)CCC4=O)sc23)c1OC1CCN(C(=O)CCOCCOCCOCCNC(=O)OC(C)(C)C)CC1 [U34]
	> 6.00	> 6.00			Cc1cc(Cl)cc(-c2ccnc3cc(CN4C(=O)CCC4=O)sc23)c1OC1CCN(CCCNC(=O)CCNC(=O)OC(C)(C)C)CC1 [U39]
	> 6.00	> 6.00			Cc1cc(Cl)cc(-c2ccnc3cc(CN4C(=O)CCC4=O)sc23)c1OC1CCN(CCCNC(=O)CCCCCCNC(=O)OC(C)(C)C)CC1 [U40]
	> 6.00	> 6.00			Cc1cc(Cl)cc(-c2ccnc3cc(CN4C(=O)CCC4=O)sc23)c1OC1CCN(CCCNC(=O)CCCCCCCNC(=O)OC(C)(C)C)CC1 [U41]
	> 6.00	> 6.00			C[C@H](CC(=O)N1CCC(O)(Cn2cnc3cc(NC(=O)CCN4CCN(CCN=[N+]=[N-])CC4)ccc3c2=O)CC1)c1ccccc1 [U46]
